Results as given in patent US9533952B2, “N-prop-2-ynyl carboxamide derivatives and their use as TRPA1 antagonists” (Orion Corporation, priority 2012, dated 2017).

biological target: TRPA1 (Homo sapiens, UniProt O75762); test: Determination of TRPA1 activity in vitro (TRPA1 antagonism in vitro); format: cell-based; settings: procedure of Wei et al., Anesthesiology 111 (2009) 147-154
Sequence (O75762 whole entry): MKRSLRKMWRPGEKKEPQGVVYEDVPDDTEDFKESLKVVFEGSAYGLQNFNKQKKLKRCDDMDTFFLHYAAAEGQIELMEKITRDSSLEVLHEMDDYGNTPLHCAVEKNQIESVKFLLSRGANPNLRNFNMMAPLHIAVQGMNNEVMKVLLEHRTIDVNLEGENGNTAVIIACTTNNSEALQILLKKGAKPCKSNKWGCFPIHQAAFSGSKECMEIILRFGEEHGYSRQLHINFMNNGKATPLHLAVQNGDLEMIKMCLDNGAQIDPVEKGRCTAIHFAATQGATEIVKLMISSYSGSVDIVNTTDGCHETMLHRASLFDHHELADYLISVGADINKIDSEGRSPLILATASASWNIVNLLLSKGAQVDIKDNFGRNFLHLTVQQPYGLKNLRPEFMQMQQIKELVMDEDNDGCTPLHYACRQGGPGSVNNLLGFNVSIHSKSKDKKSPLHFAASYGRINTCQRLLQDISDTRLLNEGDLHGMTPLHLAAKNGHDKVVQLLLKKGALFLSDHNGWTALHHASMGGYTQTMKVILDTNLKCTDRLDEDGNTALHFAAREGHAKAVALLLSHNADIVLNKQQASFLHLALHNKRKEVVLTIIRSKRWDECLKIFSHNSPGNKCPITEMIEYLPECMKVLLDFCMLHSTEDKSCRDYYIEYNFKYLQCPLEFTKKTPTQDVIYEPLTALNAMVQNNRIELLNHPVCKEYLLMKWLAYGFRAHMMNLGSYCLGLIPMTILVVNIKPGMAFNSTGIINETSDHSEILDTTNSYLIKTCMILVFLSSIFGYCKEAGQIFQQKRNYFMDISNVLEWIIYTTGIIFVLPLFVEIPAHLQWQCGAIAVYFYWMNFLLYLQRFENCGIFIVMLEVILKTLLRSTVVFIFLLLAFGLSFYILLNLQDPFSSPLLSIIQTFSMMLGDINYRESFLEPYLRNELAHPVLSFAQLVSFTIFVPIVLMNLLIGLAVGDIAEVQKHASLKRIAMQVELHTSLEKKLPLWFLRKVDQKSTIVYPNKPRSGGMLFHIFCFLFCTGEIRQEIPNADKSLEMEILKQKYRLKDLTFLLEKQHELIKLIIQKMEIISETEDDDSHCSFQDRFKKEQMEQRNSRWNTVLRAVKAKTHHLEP

| Compound | IC50 [µM] |
| --- | --- |
| C#CC(C)(C)NC(=O)c1cc(I)ccc1NCCOC [Example 50, 5-Iodo-2-(2-methoxyethylamino)-N-(2-methylbut-3-yn-2-yl)benzamide] | 5.8 |
| C#CC(CC)(CC)NC(=O)c1cc(F)c(F)cc1NCCOC [Example 45, N-(3-Ethylpent-1-yn-3-yl)-4,5-difluoro-2-(2-methoxyethylamino)-benzamide] | 2 |
| C#CC(C)(C)NC(=O)c1cc(OCC)ccc1NCCC [Example 154, 5-Ethoxy-N-(2-methylbut-3-yn-2-yl)-2-(propylamino)benzamide] | 7.1 |
| C#CC(C)(C)NC(=O)c1cc(F)cc(F)c1NCCC(F)F [Example 135, 2-(3,3-Difluoropropylamino)-3,5-difluoro-N-(2-methylbut-3-yn-2-yl)benzamide] | 5 |
| C#CC(C)(C)NC(=O)c1cc(F)c(F)cc1NCC(C)(C)C [Example 61, 4,5-Difluoro-N-(2-methylbut-3-yn-2-yl)-2-(neopentylamino) benzamide] | 0.8 |
| C#CC(C)(C)NC(=O)c1cnc(C(F)(F)F)nc1NC(C)(C)C [Example 108, 4-(tert-Butylamino)-N-(2-methylbut-3-yn-2-yl)-2-(trifluoromethyl)pyrimidine-5-carboxamide] | 5 |
| C#CC(C)(CC)NC(=O)c1cccnc1Nc1ccc(F)c(OC)c1 (centres unmarked) [Example 194, 2-(4-Fluoro-3-methoxyphenylamino)-N-(3-methylpent-1-yn-3-yl)nicotinamide] | 1.6 |
| C#CC(C)(C)NC(=O)c1ccc(C)cc1NCCC(F)(F)F [Example 94, 4-Methyl-N-(2-methylbut-3-yn-2-yl)-2-(3,3,3-trifluoropropylamino)-benzamide] | 1.8 |
| C#CC(C)(C)NC(=O)c1cc(OC(F)(F)F)ccc1NC [Example 85, 2-(Methylamino)-N-(2-methylbut-3-yn-2-yl)-5-(trifluoromethoxy)-benzamide] | 13.2 |
| C#CC(C)(CC)NC(=O)c1cccnc1Nc1ccc(F)cc1F (centres unmarked) [Example 174, 2-(2,4-Difluorophenylamino)-N-(3-methylpent-1-yn-3-yl)nicotinamide] | 0.4 |
| C#CC(C)(C)NC(=O)c1ccc(OC)cc1NCCC [Example 74, 4-Methoxy-N-(2-methylbut-3-yn-2-yl)-2-(propylamino)benzamide] | 7 |
| C#CC(C)(C)NC(=O)c1cc(Cl)cnc1Nc1ccccc1 [Example 129, 5-Chloro-N-(2-methylbut-3-yn-2-yl)-2-(phenylamino)nicotinamide] | 0.7 |
| C#CC(CC)(CC)NC(=O)c1cc(F)cnc1NC1CC(F)(F)C1 [Example 163, 2-(3,3-Difluorocyclobutylamino)-N-(3-ethylpent-1-yn-3-yl)-5-fluoronicotinamide] | 0.1 |
| C#CC(C)(C)NC(=O)c1ccccc1NCCCC [Example 64, 2-(Butylamino)-N-(2-methylbut-3-yn-2-yl)benzamide] | 1.5 |
| C#CC(C)(C)NC(=O)c1cccnc1Nc1ccc(F)c(OC)c1 [Example 193, 2-(4-Fluoro-3-methoxyphenylamino)-N-(2-methylbut-3-yn-2-yl)nicotinamide] | 11.1 |
| C#CC(C)(C)NC(=O)c1cc(F)cnc1NCC(F)(F)F [Example 33, 5-Fluoro-N-(2-methylbut-3-yn-2-yl)-2-(2,2,2-trifluoroethylamino)-nicotinamide] | 3 |
| C#CC(C)(C)NC(=O)c1cccc(F)c1NCCC [Example 16, 3-Fluoro-N-(2-methylbut-3-yn-2-yl)-2-(propylamino)benzamide] | 10.8 |

The remaining compounds from weak to strong by IC50, led by results:

| IC50 [µM] | Compound |
| --- | --- |
| 11.9 | C#CC(C)(C)NC(=O)c1cccnc1NC(C)(C)C [Example 101, 2-(tert-Butylamino)-N-(2-methylbut-3-yn-2-yl)nicotinamide] |
| 11.4 | C#CC(C)(C)NC(=O)c1cnccc1Nc1ccc(Cl)cc1 [Example 159, 4-(4-Chlorophenylamino)-N-(2-methylbut-3-yn-2-yl)nicotinamide] |
| 7 | C#CC(C)(C)NC(=O)c1cc(F)ccc1NC1CC1 [Example 91, 2-(Cyclopropylamino)-5-fluoro-N-(2-methylbut-3-yn-2-yl)benzamide] |
| 5.8 | C#CC(C)(C)NC(=O)c1cccnc1NCCc1ccccc1 [Example 142, N-(2-Methylbut-3-yn-2-yl)-2-(phenethylamino)nicotinamide] |
| 5.6 | C#CC(C)(C)NC(=O)c1cc(Cl)cc(F)c1NC(C)C [Example 95, 5-Chloro-3-fluoro-2-(isopropylamino)-N-(2-methylbut-3-yn-2-yl)-benzamide] |
| 5.3 | C#CC(C)(C)NC(=O)c1cccnc1NCc1cccc(F)c1 [Example 98, 2-(3-Fluorobenzylamino)-N-(2-methylbut-3-yn-2-yl)nicotinamide] |
| 4.4 | C#CC(C)(C)NC(=O)c1cccnc1Nc1ccccc1 [Example 127, N-(2-Methylbut-3-yn-2-yl)-2-(phenylamino)nicotinamide] |
| 4.3 | C#CC(C)(C)NC(=O)c1ccncc1Nc1ccc(Cl)cc1 [Example 134, 3-((4-Chlorophenyl)amino)-N-(2-methylbut-3-yn-2-yl)isonicotinamide] |
| 3.7 | C#CC(C)(C)NC(=O)c1cnc(C(F)(F)F)nc1NCCC(F)(F)F [Example 11, N-(2-Methylbut-3-yn-2-yl)-2-(trifluoromethyl)-4-(3,3,3-trifluoropropylamino)pyrimidine-5-carboxamide] |
| 3.2 | C#CC(C)(C)NC(=O)c1ccc(C#N)cc1NC1CCC1 [Example 37, 4-Cyano-2-(cydclobutylamino)-N-(2-methylbut-3-yn-2-yl)benzamide] |
| 3 | C#CC(C)(CC)NC(=O)c1cccnc1Nc1cc(OC)ccc1Cl (centres unmarked) [Example 189, 2-(2-Chloro-5-methoxyphenylamino)-N-(3-methylpent-1-yn-3-yl)nicotinamide] |
| 1.8 | C#CC(C)(C)NC(=O)c1cc(Cl)cnc1NCCC(F)F [Example 60, 5-Chloro-2-(3,3-difluoropropylamino)-N-(2-methylbut-3-yn-2-yl)nicotinamide] |
| 1.4 | C#CC(C)(CC)NC(=O)c1cc(F)cnc1NCC(F)F (centres unmarked) [Example 20, 2-(2,2-Difluoroethylamino)-5-fluoro-N-(3-methylpent-1-yn-3-yl)nicotinamide] |
| 0.7 | C#CC(C)(CCC)NC(=O)c1cc(F)c(F)cc1NCC(C)C (centres unmarked) [Example 70, 4,5-Difluoro-2-(isobutylamino)-N-(3-methylhex-1-yn-3-yl)benzamide] |
| 0.7 | C#CC(C)(CC)NC(=O)c1cccnc1Nc1ccc(OC)c(Cl)c1 (centres unmarked) [Example 192, 2-(3-Chloro-4-methoxyphenylamino)-N-(3-methylpent-1-yn-3-yl)nicotinamide] |
| 0.6 | C#CC(C)(CC)NC(=O)c1cccnc1Nc1cc(F)cc(OC)c1 (centres unmarked) [Example 166, 2-(3-Fluoro-5-methoxyphenylamino)-N-(3-methylpent-1-yn-3-yl)nicotinamide] |
| 0.5 | C#CC(C)(C)NC(=O)c1cc(C(F)(F)F)cnc1NCC(F)(F)F [Example 35, N-(2-Methylbut-3-yn-2-yl)-2-(2,2,2-trifluoroethylamino)-5-(trifluoromethyl)nicotinamide] |
| 0.4 | C#CC(C)(C)NC(=O)c1cc(F)cnc1NCC(F)(F)C(F)(F)F [Example 29, 5-Fluoro-N-(2-methylbut-3-yn-2-yl)-2-(2,2,3,3-pentafluoropropyl-amino)nicotinamide] |
